Laboratory results published in US5192764A, “Pyrazinone N-oxide nucleosides and analogs thereof” (priority 1991, dated 1993).

Assays:
[1] = system: HSV-1 (KOS strain); assay: Virus Yield Method against HSV-1 (KOS strain); assay type: cell-based; conditions: for IC90: Human alphaherpesvirus 1, read-out: ID90 (the source's name)
[2] = system: HSV-1 KOS (PFAr); assay: Plaque Reduction Method against HSV-1 KOS phosphonoformate resistant strain; assay type: cell-based; conditions: Human alphaherpesvirus 1, read-out: ID50
Protocol: (§1) Using the Plaque Reduction Method, activity against HSV-1 KOS Phosphono formate resistant (PFAr) and KOS 9-(2-Phosphonylmethoxyethyl)-adenine resistant (PMEAr) strains was assessed.

[3] = system: vaccinia viruses; conditions: literature; comparable to 5-iodo-2'-deoxyuridine; cited from earlier work
[4] = system: herpes simplex; conditions: literature; comparable to 5-iodo-2'-deoxyuridine; cited from earlier work
[5] = system: HSV-1 (KOS strain); assay: Plaque reduction method, anti-HSV-1 (KOS strain); assay type: cell-based; conditions: for activity at 1 µM: Human alphaherpesvirus 1, 1 uM; for activity at 1 µM / activity at 5 µM / activity at 25 µM / activity at 100 µM: read-out: Plaque Forming Units, % of Control; for activity at 5 µM: Human alphaherpesvirus 1, 5 uM; for activity at 25 µM: Human alphaherpesvirus 1, 25 uM; for activity at 100 µM: Human alphaherpesvirus 1, 100 uM; for antiherpes activity (in words): data of Table 1
Protocol: Antiviral (HSV) activities of 1-(2'-Deoxy-B-D-ribofuranosyl)-2-pyrazinone-4-N-oxide (A in table 1) and the corresponding 1-(2'-Deoxy-B-D-ribofuranosyl)-5-methyl-2-pyrazinone-N-oxide and 1-(2,-Deoxy-B-D-ribofuranosyl)-5-ethyl-2-pyrazinone-4-N-oxide (respectively, B and C of table 1) were determined according to the procedure described in Gao, et al., Antimic. Agents Chem., 34, 808 (1990), using the plaque reduction method. Table 1 indicates the relative antiviral activities of the three derivatives against HSV-1 (KOS strain).

[6] = system: bacterial cells; conditions: literature; cited from earlier work
[7] = system: leukemic L1210 cells; conditions: literature; cited from earlier work
[8] = system: HSV-1 KOS (PMEAr); assay: Plaque Reduction Method against HSV-1 KOS 9-(2-phosphonylmethoxyethyl)-adenine resistant strain; assay type: cell-based; conditions: Human alphaherpesvirus 1, read-out: ID50
Protocol: as §1

[9] = system: HSV-2 (333); assay: Virus Yield method against HSV-2 (333); assay type: cell-based; conditions: Human alphaherpesvirus 2, read-out: ID90 (the source's name)
[10] = system: leukemia L1210 cells; assay: Cytotoxicity against leukemia L1210 cells; assay type: cell-based; conditions: up to a concentration of 2×10^-3
Protocol: (§2) Compounds B and C were tested for cytotoxicity against leukemia L1210 cells up to a concentration of 2×10^-3 according to the method described in Bobek and Bloch, J. Med. Chem., 20, 458, 1977. In addition, these compounds were tested for cytotoxicity against a human T-cell lymophoblast cell line (CEM) according to the method of Vazquez-Padua, et al., Cancer Comm., 2, 55-62 (1990) with the exception that the cell line was different, to assay the cells, the cells were counted with a cell counter and the cells were incubated for 4 days instead of for 3 days.

[11] = system: EBV; assay: Anti-EBV activity, EBV DNA in high EBV producer cell line; assay type: cell-based; conditions: EBV DNA in Hl subclone of P3HR-1 cells, EBV DNA probe BAMH IM
Protocol: In particular, when EBV DNA was assessed in a high EBV producer cell line (Hl, which is a subclone of P3HR-1 cells of Burkitt's lymphoma cell line), Compound C evidenced anti-EBV activity. The methodology employed in the EBV assay is similar to the method of Foster, et al., Jour. Biol. Chem., 266, 238, (1991), except that the EBV DNA was assessed with an EBV DNA probe BAMH IM.

[12] = system: human T-cell lymophoblast cell line (CEM); assay: Cytotoxicity against human T-cell lymphoblast cell line (CEM); assay type: cell-based; conditions: CEM cells, 4 days incubation
Protocol: as §2

[13] = as above; assay type: cell-based; conditions: human; CEM cells, 4 days incubation; read-out: cytotoxicity ID50
Protocol: as §2

[14] = system: thymidine phosphorylase; assay: Breakdown by human liver thymidine phosphorylase; assay type: biochemical; conditions: enzyme from human liver
Description: Compound C was also examined against thymidine phosphorylase obtained from the human liver using standard methodology.

[15] = system: Varicella Zoster (VZV); assay: Anti-VZV activity (Virus Yield) in HLF human cell line; assay type: cell-based
Description: As tested, using the above-described methodology, luM of Compound C inhibited 90% of the Virus Yield.

SMILES | IC90 [1] [nM] | IC50 [2] [nM] | activity at 1 µM [5] [%] | activity at 5 µM [5] [%] | activity at 25 µM [5] [%] | activity at 100 µM [5] [%] | antiherpes activity (in words) [5] | antibacterial / antimicrobial activity [6] | activity against leukemic L1210 cells [7] | IC50 [8] [nM] | IC90 [9] [nM] | cytotoxicity [10] | also measured
Nc1nc2c(ncn2COCCO)c(=O)[nH]1 [acyclovir, reference compound] | 14000 | 6200 | – | – | – | – | – | – | – | – | – | – | ID90 of ACV relative to Compound C (fold higher) [1]: approximately 7 fold
CCc1cn([C@H]2C[C@H](O)[C@@H](CO)O2)c(=O)[nH]c1=O [5-ethyl-2'-deoxyuridine] | – | – | – | – | – | – | – | – | – | – | – | – | activity against vaccinia viruses [3]: significant activity; activity against herpes simplex [4]: significant activity
O=c1c[n+]([O-])ccn1[C@H]1C[C@H](O)[C@@H](CO)O1 [A, 1-(2'-Deoxy-B-D-ribofuranosyl)-2-pyrazinone-4-N-oxide] | – | – | 100 | 100 | 100 | 100 | inactive | significantly more effective as an antimicrobial agent than the riboside | essentially inactive | – | – | – | –
Cc1cn([C@H]2C[C@H](O)[C@@H](CO)O2)c(=O)c[n+]1[O-] [Compound B, 1-(2'-Deoxy-B-D-ribofuranosyl)-5-methyl-2-pyrazinone-N-oxide] | 1800 | 1400 | 100 | 39 | 0.91 | 0.09 | significant antiherpes activity | only marginally active | significantly more active | 600 | 3000 | significant cytoxtoxicity | –
CCc1cn([C@H]2C[C@H](O)[C@@H](CO)O2)c(=O)c[n+]1[O-] [Compound C, 1-(2-Deoxy-B-D-ribofuranosyl)-5-ethyl-2-pyrazinone-4-N-oxide] | 2800 | 3400 | 100 | 55 | 4.5 | 0.3 | significant antiherpes activity | – | – | 1000 | 2000 | virtually no cytotoxicity | EC50 ([5]; Human alphaherpesvirus 1, plaque reduction): 6000 nM; anti-EBV activity [11]: significant anti-EBV activity; cytotoxicity relative to Compound B [12]: significantly less toxic than Compound B; CC50 at 96 h [13]: > 400000 nM; substrate of thymidine phosphorylase [14]: substrate of the enzyme; rate of breakdown by the enzyme relative to thymidine ([14]; compared with thymidine): much less than the rate or breakdown of thymidine; activity against VZV (in words) [15]: significant activity; inhibition of Virus Yield ([15]; luM): 90%
O=c1c[n+]([O-])ccn1[C@@H]1O[C@H](CO)[C@@H](O)[C@H]1O [riboside of 2-pyrazinone-4-N-oxide, reference compound] | – | – | – | – | – | – | – | antibacterial activity | – | – | – | – | –
